Series [1] deals with T1, msGFP-HaloTag® fusion localized to the mitochondrial outer membrane (Rhodococcus rhodochrous, UniProt P0A3G2, A155T/A167V/A172T/A224E/C128F/C176G/D78G/E160K/E257K/H272N/K175M/K195N/L47V/L88M/N227D/S58T/T264A/Y273L/Y87F).
T1 construct: expressed in transfected cells; host or cells: HEK293T, calcium phosphate transfection
Description: HEK293T labeling and fluorescence microscopy. The format is cell-based. The note with it: for labeling of mitochondria-localized HaloTag®-msGFP fusion: live HEK293T cells, nanomolar concentration (100 nM, 1 h); for concentration at which ligand can be deployed for cellular labeling: live cells; for cellular fluorescence intensity (JF ligand/msGFP ratio): HEK293T cells, 100 nM, same imaging conditions. An excerpt:
Plasmid construction. HaloTag®, amplified from the pHTC HaloTag® CMV-neo Vector (Promega; G7711) and monomeric-superfolder green fluorescent protein (msGFP; lab stock), was fused to the mitochondrial targeting signal from OMP25,^28 interspacing flexible GS(GSS)4 linkers between each domain by PCR Splicing by Overlap Extension (SOE). This construct was subcloned into hSynapsin promoter bearing a copy of FUGW.^29 FUGW was a gift from David Baltimore (Addgene plasmid #14883; RRID: Addgene_14883).^48 This construct was designated as pF(UG) hSyn HaloTag®-TEV-4×GS-msGFP-mito.
HEK293T cell culture. HEK293T cells (ATCC) were passaged before 80% confluency by trypsinization (Corning; 25-053-CI) and trituration. The cell suspension was then plated on glass coverslips (Warner instruments; 64-0734, CS-18R17) coated with poly-D-lysine (Thermofisher; ICN10269491) and cultured in Dulbecco's Modified Eagle Medium (DMEM; ThermoFisher; 11965-118) supplemented with 10% v/v fetal bovine serum (FBS, Atlanta Biological) and penicillin/streptomycin (pen/strep; ThermoFisher; MT-30-001-CI) at 37° C. in a humidified 5% v/v CO2 environment following ATCC guidelines. These HEK293T cells were tested for mycoplasma contamination using the Universal Mycoplasma Detection Kit (ATCC; 30-1012K) and validated using Short Tandem Repeat profiling by ATCC (ATCC; 135-XV) within the previous year.
HEK293T labeling and fluorescence microscopy. […] For pulse-chase experiments, HEK293T cells were incubated with biotin-HaloTag® ligand (6; #G8281, Promega) at either 100 nM or 10 μM for 1 hour at 37° C. and chased with 100 nM of JANELIA FLUOR® (JF)549-HaloTag® ligand (2HTL). […] For imaging, the coverslips containing HEK293T cells were fixed with 4% paraformaldehyde in PBS at 37° C. for 10 min, washed with PBS (3×), and mounted on glass slides with ProLong Glass Antifade Mountant with NucBlue™ Stain (ThermoFisher; P36981). These cells were imaged using a Zeiss LSM 880 with Airyscan and a plan-apochromatic 63×/1.40 oil objective in Fast Airyscan mode. The same image acquisition settings were used for each trial and condition. Images were then processed with automatic Airyscan deconvolution settings.

Series [2] is described as follows: Determination of lactone-zwitterion equilibrium constant (KL-Z). In kind it is physicochemical. Particulars: 1:1 (v/v) dioxane:water. On the procedure:
Determination of KL-Z. The lactone-zwitterion equilibrium constant (KL-Z) was calculated as described previously^13, 23, 32, 45 using equation 1: […]
where εdw is the extinction coefficient of the dyes in a 1:1 (v/v) dioxane:water solvent mixture containing 0.01% (v/v) triethylamine; this dioxane water mixture was chosen to give a large range of KL-Z values,^23 and the triethylamine additive ensures the rhodamines are in the net neutral form. The εmax is the maximal extinction coefficient, measured in 0.1% (v/v) trifluoroacetic acid in 2,2,2-trifluoroethanol (TFE).

Series [3] deals with HaloTag®-histone H2B fusion protein. In kind it is cell-based. Particulars: for time to reach saturation of labeling: 200 nM, live U2OS cells expressing HaloTag®-H2B, 0-4 h. On the procedure: Dye loading kinetics. Live U2OS.H2B.HaloTag® stable cells were labeled over a time course of 0-4 h with 200 nM of biotin-JF549-HaloTag® ligand (12), biotin-JF608-HaloTag® ligand (13), biotin-JF646-HaloTag® ligand (14), or biotin-JF635-HaloTag® ligand (15) at 37° C. Cells were then washed 3× with dye-free media, fixed with 4% paraformaldehyde in 0.1 M phosphate buffer, pH 7.4 for 15 min at 37° C. Confocal imaging was performed on a Leica SP8 with an HC PL APO CS2 20×/0.75 immersion objective using the tunable white light laser (WLL) to excite dyes at their λabs in constant power mode. Fluorescence was quantified as the average integrated density of background corrected nuclear signals from confocal image stack projections analyzed in FIJI; n=100 nuclear signals per compound.

The nature of series [4]: 1-Photon spectroscopy and quantum yield of HaloTag® ligands. In kind it is physicochemical. Particulars: free ligand, 10 mM HEPES pH 7.3. The procedure:
1-Photon spectroscopy of HaloTag® ligands and HaloTag® conjugates. […] All measurements were taken at ambient temperature (22 ±2° C.). Absorption spectra were recorded on a Cary Model 100 spectrometer (Agilent) using 1-cm path length 1.0-mL quartz microcuvettes from Starna Cells. Fluorescence spectra were recorded on a Cary Eclipse fluorometer (Varian) using 1-cm path length 3.5-mL quartz cuvettes (Starna Cells). As before,^13, 23, 32, 45 HaloTag® protein was used as a 100 μM solution in 1×TBS. HaloTag® ligands 12-15 (5 μM) were dissolved in 10 mM HEPES, pH 7.3, containing 0.1 mg/mL CHAPS. An aliquot of HaloTag® protein (1.5 equiv) was added, and the resulting mixture was incubated until a consistent absorbance signal was observed (60-120 min). To measure the fold-increase of absorbance upon HaloTag® binding, a “no HaloTag®” control experiment was performed where an equivalent volume of TBS blank was added in place of the protein. Reported values for extinction coefficient (ε) are averages of at least two measurements.
Quantum yield determination. All reported absolute fluorescence quantum yield values (Φf) were measured in the laboratory under identical conditions using a Quantaurus-QY spectrometer (model C11374, Hamamatsu). This instrument uses an integrating sphere to determine photons absorbed and emitted by a sample. Measurements were performed using dilute samples (absorbance<0.1), and self-absorption corrections were performed using the instrument software.^46 Reported values are averages of at least two measurements.

T1 sequence (P0A3G2 other isoform, or with tags, fused parts or gaps with the stated changes): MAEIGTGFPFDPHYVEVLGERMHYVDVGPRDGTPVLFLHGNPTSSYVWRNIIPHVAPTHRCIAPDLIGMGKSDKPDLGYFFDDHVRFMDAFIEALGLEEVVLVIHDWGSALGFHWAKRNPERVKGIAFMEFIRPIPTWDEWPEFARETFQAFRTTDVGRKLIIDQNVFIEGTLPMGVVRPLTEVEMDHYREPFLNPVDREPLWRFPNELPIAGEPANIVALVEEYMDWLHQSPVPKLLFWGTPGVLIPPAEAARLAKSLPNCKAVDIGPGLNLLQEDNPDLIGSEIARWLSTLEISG

With `C[Si]1(C)c2cc(N3CC(F)C3)ccc2C2(OC(=O)c3ccc(C(=O)NCCOCCOCCCCCCCl)cc32)c2ccc(N3CC(F)C3)cc21` [5HTL, JF635-HaloTag® ligand, reference compound], the “labeling of mitochondria-localized HaloTag®-msGFP fusion” value in series [1] is given as “labeled the mitochondria in live cells”. In series [2], the KL-Z is 0.0048.
In the case of `C[Si]1(C)C2=CC(=[N+]3CC(C(=O)NCCOCCOCCNC(=O)CCCC[C@@H]4SC[C@@H]5NC(=O)N[C@@H]54)C3)C=CC2=C(c2cc(C(=O)NCCOCCOCCCCCCCl)ccc2C(=O)[O-])c2ccc(N3CCC3)cc21` (stereo partly drawn) [compound 14, Biotin-JF646-HaloTag® ligand], in series [1], the “labeling of mitochondria-localized HaloTag®-msGFP fusion” value was “labeled the mitochondria in live cells” and the “concentration at which ligand can be deployed for cellular labeling” value is 100 nM. In series [2], the KL-Z is 0.0086. For the same compound, the “time to reach saturation of labeling” value in series [3] is recorded as “approximately 1 h”. Also, in series [4], the “extinction coefficient (ε)” value is 34,000 M^−1cm^−1, the “fluorescence quantum yield (Φf)” value stood at 0.56, the λabs was 647 nm and the λem is reported as 666 nm.
For `C[Si]1(C)C2=CC(=[N+]3CC(F)(C(=O)NCCOCCOCCNC(=O)CCCC[C@@H]4SC[C@@H]5NC(=O)N[C@@H]54)C3)C=CC2=C(c2cc(C(=O)NCCOCCOCCCCCCCl)ccc2C(=O)[O-])c2ccc(N3CC(F)C3)cc21` (stereo partly drawn) [compound 15, Biotin-JF635-HaloTag® ligand], in series [1], the “cellular fluorescence intensity (JF ligand/msGFP ratio)” value was “lower fluorescence intensity than 5HTL”, the “labeling of mitochondria-localized HaloTag®-msGFP fusion” value was “labeled the mitochondria in live cells” and the “concentration at which ligand can be deployed for cellular labeling” value is on record as 100 nM. Besides, the KL-Z in series [2] came to 0.0032. In addition, in series [3], the “time to reach saturation of labeling” value is “approximately 1 h”. Further, in series [4], the “extinction coefficient (ε)” value is 2,900 M^−1cm^−1, the “fluorescence quantum yield (Φf)” value was 0.60, the λabs was 636 nm and the λem is given as 655 nm.
Consider “Biotin-JF549-HaloTag® ligand [compound 12]”, for which, in series [1], the “cellular fluorescence intensity (JF ligand/msGFP ratio)” value is on record as “poor labeling” and the “labeling of mitochondria-localized HaloTag®-msGFP fusion” value is “did not show appreciable cellular labeling”. This compound also gave a KL-Z in series [2] of 5.9. Besides, in series [3], the membrane permeability entry is listed as “negligible membrane permeability”. Further, in series [4], the “extinction coefficient (ε)” value was 92,000 M^−1cm^−1, the “fluorescence quantum yield (Φf)” value is 0.90, the λabs was 552 nm and the λem is 575 nm.

Values taken from patent US20240239818A1, “COMPOUNDS AND COMPOSITIONS COMPRISING FLUOROPHORES FOR USE IN VISUALIZATION AND PURIFICATION OR MANIPULATION” (priority 2022, published 2024).
